Laboratory results taken from patent US20110190365A1, “Insecticidal 4-phenyl-1H-pyrazoles” (Bayer Crop Science AG, priority 2008, published 2011).

Assay: log P by HPLC on a reversed-phase column (C18), EEC Directive 79/831 Annex V.A8
Assay type: physicochemical
Procedure: The stated log P values were determined in accordance with EEC Directive 79/831 Annex V.A8 by HPLC (High Performance Liquid Chromatography) using a reversed-phase column (C18).

[1] = HPLC, reversed-phase C18, mobile phase with formic acid

Row | SMILES | log P (HCOOH) (HCOOH) | further results
1 | N#Cc1cc(-n2nc(C(F)(F)F)c(-c3ccccc3Cl)c2N)ccc1-n1cncn1 [I-A-Q1-035] |  | log P (HCOOH) [1]: I-A-Q1-035: log P (HCOOH): 2.80
2 | N#Cc1cc(-n2nc(C(F)(F)F)c(-c3ccc(I)cc3)c2N)ccc1-n1cncn1 [I-A-Q1-043] |  | log P (HCOOH) [1]: I-A-Q1-043: log P (HCOOH): 3.61
3 | CCCC(NC(=O)c1ccc(-n2nc(C(F)(F)F)c(-c3cc(Cl)cc(Cl)c3)c2N)cc1)C(F)(F)F (stereo not shown) [I-A-Q2-071] | I-A-Q2-071: log P (HCOOH): 4.95 | 
4 | Cc1cc(-n2nc(C(F)(F)F)c(-c3ccccc3C)c2N)ccc1C(=O)NCc1ccccn1 [I-A-Q2-359] | I-A-Q2-359: log P (HCOOH): 2.34 | 
5 | Cc1cc(-n2nc(C)c(-c3ccc(Cl)c(Cl)c3)c2N)ccc1C(=O)NCC(F)(F)C(F)F [I-A-Q2-323] | I-A-Q2-323: log P (HCOOH): 4.32 | 
6 | Nc1c(-c2ccc(Cl)c(F)c2)c(C(F)(F)F)nn1-c1ccc(C(=O)NC2CC2)cc1 [I-A-Q2-167] | I-A-Q2-167: log P (HCOOH): 3.19 | 
7 | Cc1cc(-n2nc(CC(C)C)c(-c3ccc(Cl)cc3)c2N)ccc1C(=O)NCc1ccccn1 [I-A-Q2-382] | I-A-Q2-382: log P (HCOOH): 2.84 | 
8 | Cc1cc(-n2nc(C)c(-c3c(F)cccc3F)c2N)ccc1C(=O)NCc1ccccn1 [I-A-Q2-369] | I-A-Q2-369: log P (HCOOH): 1.52 | 
9 | Cc1cc(-n2nc(C(F)(F)F)c(-c3ccc(Br)cc3)c2N)ccc1C(=O)NCc1ccccn1 [I-A-Q2-346] | I-A-Q2-346: log P (HCOOH): 2.80 | 
10 | Cc1cc(-n2nc(C(F)(F)F)c(I)c2N)ccc1C(=O)NCC(F)(F)C(F)F [XI-A-094] | XI-A-094: log P (HCOOH): 3.08 | 
11 | Nc1c(-c2cc(Cl)cc(Cl)c2)c(C(F)(F)F)nn1-c1ccc(C(=O)NCC(F)(F)C(F)F)c(C(F)(F)F)c1 [I-A-Q2-385] | I-A-Q2-385: log P (HCOOH): 4.60 | 
12 | Cc1cnc2c(c1)CCCC2NC(=O)c1ccc(-n2nc(C(F)(F)F)c(-c3cc(Cl)cc(Cl)c3)c2N)cc1C (stereo not shown) [I-A-Q2-051] | I-A-Q2-051: log P (HCOOH): 3.06 | 
13 | CS(=O)(=O)c1cc(-n2nc(C(F)(F)F)c(-c3cc(Cl)cc(Cl)c3)c2N)ccc1C(=O)NCc1ccccn1 [I-A-Q2-425] | I-A-Q2-425: log P (HCOOH): 2.99 | 
14 | Cc1cc(C)nc(CNC(=O)c2ccc(-n3nc(C(F)(F)F)c(-c4cc(Cl)cc(Cl)c4)c3N)cc2C)n1 [I-A-Q2-245] | I-A-Q2-245: log P (HCOOH): 3.89 | 
15 | Cc1nc(CNC(=O)c2ccc(-n3nc(C(F)(F)F)c(-c4cc(Cl)cc(Cl)c4)c3N)cc2C)cs1 [I-A-Q2-041] | I-A-Q2-041: log P (HCOOH): 3.94 | 
16 | N#Cc1cc(-n2nc(C(F)(F)F)c(-c3cc(Cl)cc(Cl)c3)c2N)ccc1I [I-A-Q4-102] |  | log P (HCOOH) (HCOOH, Table 4, compounds of formula I-A-Q4): I-A-Q4-102: log P (HCOOH): 5.94
17 | Cc1cc(-n2nc(C)c(-c3c(Cl)cccc3Cl)c2N)ccc1C(=O)NCc1ccccn1 [I-A-Q2-376] | I-A-Q2-376: log P (HCOOH): 1.79 | 
18 | N#Cc1cnn(-c2ccc(-n3nc(C(F)(F)F)c(-c4cc(Cl)cc(Cl)c4)c3N)cc2C#N)c1 [I-A-Q1-079] |  | log P (HCOOH) [1]: I-A-Q1-079: log P (HCOOH): 4.28
19 | Cc1cc(-n2nc(C(F)(F)F)c(-c3cc(Cl)cc(Cl)c3)c2N)ccc1C(=O)NCc1cccnc1 [I-A-Q2-216] | I-A-Q2-216: log P (HCOOH): 2.57 | 
20 | Cc1cc(-n2nc(C(F)(F)F)c(-c3cc(Cl)cc(Cl)c3)c2N)ccc1C(=O)NCCO [I-A-Q2-272] | I-A-Q2-272: log P (HCOOH): 3.24 | 
21 | Cc1cc(-n2nc(C(F)(F)Oc3cc(Cl)ccc3Cl)c(-c3cc(Cl)cc(C(F)(F)F)c3)c2N)ccc1C(=O)NCC(F)(F)C(F)F [I-A-Q2-296] | I-A-Q2-296: log P (HCOOH): 5.14 | 
22 | Cc1cc(-n2nc(C)c(-c3ccccc3Cl)c2N)ccc1C(=O)NCc1ccccn1 [I-A-Q2-373] | I-A-Q2-373: log P (HCOOH): 1.64 | 
23 | CC(NC(=O)c1ccc(-n2nc(C(F)(F)F)c(-c3ccc(Cl)c(F)c3)c2N)cc1)C(F)(F)F (stereo not shown) [I-A-Q2-166] | I-A-Q2-166: log P (HCOOH): 3.84 | 
24 | Cc1cc(-n2nc(C(F)(F)F)c(-c3cc(Cl)cc(Cl)c3)c2N)ccc1C(=O)NC(c1cc(Cl)cc(Cl)c1)C(F)(F)F (stereo not shown) [I-A-Q2-043] | I-A-Q2-043: log P (HCOOH): 5.65 | 
25 | Cc1nn(-c2ccc(C(=O)NC(C)C(F)(F)F)cc2)c(Br)c1-c1cccc(Cl)c1 (stereo not shown) [I-A-Q2-098] | I-A-Q2-098: log P (HCOOH): 4.36 | 
26 | COc1ccc(CNC(=O)c2ccc(-n3nc(C(F)(F)F)c(-c4cc(Cl)cc(Cl)c4)c3N)cc2C)nc1 [I-A-Q2-032] | I-A-Q2-032: log P (HCOOH): 3.63 | 
27 | CC(NC(=O)c1ccc(-n2cc(-c3cc(Cl)cc(Cl)c3)c(C(F)(F)F)n2)c2ccccc12)C(F)(F)F (stereo not shown) [I-B-Q2-001] |  | log P (HCOOH) (HCOOH, Table 6, compounds of formula I-B-Q2): I-B-Q2-001: log P (HCOOH): 4.74
28 | Cc1cc(-n2nc(C(F)(F)F)c(-c3cc(Cl)cc(Cl)c3)c2N)ccc1C(=O)NCc1cn(C)cn1 [I-A-Q2-058] | I-A-Q2-058: log P (HCOOH): 1.94 | 
